Results published in US9358224B2, “Pharmaceutical formulation comprising a phosphodiesterase inhibitor” (CHIESI FARMACEUTICI S.p.A., priority 2011, dated 2016).

Test: Chemical stability study of the pMDI formulation at 25° C./60% RH
Assay type: physicochemical
Settings: 1 and 3 months at 25° C./60% RH
Protocol: Physical and chemical stability of the formulation reported in table 1 has been assessed in a stability study at 1 and 3 months at 25° C./60% relative humidity (RH).
Chemical stability and performances data of the formulation are reported in Table 2, wherein “mean delivered dose intra-can” means the mean delivered dose of ten actuations on the same can (3 actuations at the beginning, 4 actuations in the middle and 3 actuations at the end of the life of the can).

CS(=O)(=O)Nc1ccc(C(=O)OC(Cc2c(Cl)c[n+]([O-])cc2Cl)c2ccc(OC(F)F)c(OCC3CC3)c2)cc1OCC1CC1 (single isomer, unassigned; (-)) [Compound C2, (−)-3-Cyclopropylmethoxy-4-methanesulfonylamino-benzoic acid 1-(3-cyclopropylmethoxy-4-difluoromethoxy-phenyl)-2-(3,5-dichloro-1-oxy-pyridin-4-yl)-ethyl ester]
chemical stability of C2 in the formulation (in words): no degradation during stability
